We go through five molecules from patent US11897918B2, “Compositions and methods to increase production” (priority 2014, dated 2024).

One data set relates to cellular cholesterol. Kind of data set: Total cellular cholesterol (Amplex Red). In kind it is cell-based. On the procedure:
Possible effects of BYF589 as well as various enzyme inhibitors of the pathway on the cell viability and total cellular cholesterol levels were examined. Tested samples included DMSO, BYF589 (1 μM), MEV (100 μM), FTI (0.5 μM), ZA (1 μM) and GTI (0.5 μM).
Free cholesterol is oxidized by cholesterol oxidase to form a cholesterol ketone and H2O2, which then reacts with Amplex Red+HRP to produce the fluorescent product resorufin.

In data set [1] the test system is influenza in MDCK 33016PF cells. In kind it is cell-based. The settings on record: MEV plus BYF.
For the next data set, the system named is MDCK 33016PF cells. The settings on record: 24 hours; BYF589 1 μM, MEV 100 μM, FTI 0.5 μM, ZA 1 μM, GTI 0.5 μM.
The subject of data set [2] is influenza H3N2 strain IVR-165 (A/Victoria/361/2011). In kind it is cell-based.
A further data set deals with MDCK cells. Kind of data set: Cell viability, VI-CELL trypan blue exclusion. In kind it is cell-based. The procedure:
Cell viability assays were performed using MDCK cells treated with 1 uM sulphonamide or DMSO control. Cell viability was monitored over time up to 60 hrs using a VI-CELL machine (Beckman Coulter)(cell viability measured based on trypan blue exclusion). The sulphonamide analog used herein is not a marketed drug, therefore toxicity was conducted to identify cell viability over the course of incubation at the highest tested concentration of 10 μM and 60 hours of contact. […] At least 91% viability is detected in cells treated with sulphonamide.

Data set [3] deals with virus-infected host cell culture. Format: cell-based, influenza. The settings on record: versus control without compound.
Data set [4] has as its system B/Massachusetts/2/2012 (low-expressing). The data set can be described thus: ambr15 mini-bioreactor and shake flask comparison, B strain. Format: cell-based, influenza B. The following applies: CDM and DM134 media, shake flasks and 15 ml bioreactors. On the procedure:
The two lead compounds were further tested in the commercially available small-scale bioreactor system, ambr15™ (TAP Biosystems). The ambr15 system mimics the characteristics of classical bioreactors at microscale (10-15 ml), controlled by an automated workstation, which enables the rapid evaluation of multiple bioreactor cultures at microscale.
To test both lead compounds were tested side-by-side under controlled conditions, with two infection media formulations (DM134 and CDM) and two flu strains, A/Victoria/361/2011 (IVR-165) (high-expressing) and B/Massachusetts/2/2012 (low-expressing). The infection parameters used in the experiment were as follows: seeding density was 1.0×10^6 cells/ml or 2.5×10^6 cells/mL; pH was 7.1+/−0.02 (pH control by dual control with 0.05N NaOH and CO2 gas); DO was 50% (range 50-80%), controlled by O2 gas; agitation was 1000 rpm (local control); temperature was 34.0° C., locally monitored with bioreactor controller probe; vessel type was Spargeless, extended temperature vessels; and, aeration rate during run was 1 mL/min.
The quantification of HA was carried out by ELISA then was subsequently confirmed by HPLC. It was also shown that AFZ077 was able to boost HA yield in the DM134 medium with both low (1×10^6 per mL) and high (2.5×10^6 per mL) infection cell densities in this system. […] Overall, greater enhancement effect seen for low-expressing strains. […]

Data set [5] concerns A/Victoria/361/2011 (IVR-165) (high-expressing). Kind of data set: ambr15 mini-bioreactor and shake flask comparison, A strain. In kind it is cell-based, influenza A H3N2. The settings on record: CDM and DM134 media, shake flasks and 15 ml bioreactors; listed as AFZ077.
The subject of the next data set is A and B strains. In kind it is cell-based, influenza. The settings on record: DM134 medium, 2.5×10^6 per mL.
Another data set relates to B/Massachusetts/02/2012. The data set can be described thus: Ambr 250 mL bioreactor, B strain. In kind it is cell-based, influenza B. The settings on record: any of the doses tested, ambr250. On the procedure: FIG. 13 provides a graph showing HA yields in the B strain tested with BYF589 at concentrations as indicated.
FIG. 14 provides a graph showing HA yields in the B strain tested with AFZ077 at concentrations as indicated.
The results were confirmed using 3 different viruses (a high-, medium-, and poor-expressing strains). […] To confirm these findings in a larger-scale system, TD Ambr™ 250 mL bioreactors were employed. Both of the lead compounds (as well as DMSO alone as negative control, and, no compound/no DMSO as double-negative control) were tested with a high- and low-expressing strains to determine if the observed enhancement in the small-scale cultures can be reproduced in a larger-scale system. The following parameters were used: Spent DM134:Fresh PFM (1:3); Virus Strains were A/Victoria/361/2011 (IVR-165) and B/Massachusetts/02/2012; MOI was 10^−5 for A/Victoria IVR-165 and 10^−4 for B/Massachusetts; ICD: 2.0e6-3.0e6 cells/mL; N-1 Process: 1B (no Medium Exchange); and, Harvest Time was 65-72 hours post-infection. HA yields were measured by two methods: RP-HPLC and HA-ELISA. […] Note that the error bars represent one standard deviation from the mean, to illustrate variability of the HA-ELISA assay between assay repeats.

Another data set deals with T1, 5HT7 receptor (Canis lupus familiaris, UniProt A0A8I3S709).
T1 construct: endogenous in cells; host or cells: MDCK 33016PF suspension cells (inferred)
Kind of data set: Dependence of HA enhancement on 5HT7 receptor activity. Format: cell-based. The following applies: B/Mass in DM134 media, 65 hrs HA yield by ELISA. From the text: FIG. 15 provides a graph showing that Flu HA yield enhancement by AFZ077 is dependent on decreasing activity of the 5HT7 receptor. Flu B strain (B/Mass) in DM134 media; 65 hrs HA yield by ELISA (μg/ml).
Studies based on Formula 8 (e.g., Compound E) were expanded to identify potential compounds that may share certain mechanisms of action, as summarized in Table 5 below.

The conditions of data set [6]: 0 and 60 hr, mass spec.
In the next data set the test system is Subtype AH3N2. The data set can be described thus: SAR study of analogues, HA-ELISA. The settings on record: 0.05 μM, FIG. 7. (In general: An ELISA detects its analyte on a solid surface through an enzyme-linked reagent.)
The next data set has as its system Subtype A/Texas X223A. In kind it is cell-based, influenza A. The following applies: 0.05 μM.
For the next data set, the system named is influenza H3N2 virus. The following applies: MOI of 10^−3, 24 hours post infection; cited from earlier work.

The structures appear in SMILES notation. “Also recorded” adds a separate entry of the source.

T1 sequence (A0A8I3S709 entry or part of it): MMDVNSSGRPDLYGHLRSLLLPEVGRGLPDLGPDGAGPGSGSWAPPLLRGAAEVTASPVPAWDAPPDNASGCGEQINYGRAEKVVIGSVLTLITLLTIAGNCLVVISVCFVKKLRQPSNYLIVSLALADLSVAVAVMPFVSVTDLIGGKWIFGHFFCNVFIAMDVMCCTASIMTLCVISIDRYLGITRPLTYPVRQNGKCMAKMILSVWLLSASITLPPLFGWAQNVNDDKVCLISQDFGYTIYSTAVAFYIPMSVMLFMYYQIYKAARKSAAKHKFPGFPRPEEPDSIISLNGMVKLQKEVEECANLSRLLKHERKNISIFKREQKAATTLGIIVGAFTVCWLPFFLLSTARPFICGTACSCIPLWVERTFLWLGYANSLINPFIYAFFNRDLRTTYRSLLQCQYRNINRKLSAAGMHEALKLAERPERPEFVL

Turning to `CC(O)(CCO)CC(=O)O` (centres unmarked) [MEV, Mevalonate], the “cellular cholesterol levels, in combination with BYF” value in the data set on cellular cholesterol (MEV plus BYF) is listed as “does not replenish cellular cholesterol levels”. The “cellular cholesterol levels, compound alone” value in the data set with cellular cholesterol (normalized to DMSO) is recorded as “no effect on cellular cholesterol levels”. Also, the “HA yield enhancement, in combination with BYF” value in data set [1] is “reduces HA yield enhancement”. Also, the “effect on cell viability” value with MDCK 33016PF cells is recorded as “no negative effect on cell viability”.

`Cc1cccc(S(=O)(=O)N2CCC[C@@H]2CCN2CCC(C)CC2)c1` [Compound E]: in [2], the “HA yield before the decrease (earlier addition)” value is “about 20 μg/ml” and the “HA yield, compound added 6 hours post infection” value was “about 5 μg/ml”. Moreover, in the data set on MDCK cells (monitored up to 60 hrs), the “impact on cell viability” value is reported as “Neither sulphonamide nor pitavastatin had a negative impact on cell viability”. In addition, the cell viability result in the data set with MDCK cells (up to 10 μM and 60 hours of contact) is reported as “At least 91%”. Also, in data set [3], the “increase in HA yield at 24 hours, compound added at T=2, 4” value is reported as “approximately 4 fold”; the “increase in HA yield at 24 hours, compound added at T=6” value is “no significant increase”; the “increase in HA yield at 24 hours, compound added at time of infection (T=0)” value is recorded as “approximately 4 fold”. Besides, the “HA yield enhancement, low-expressing B strain” value in data set [4] is listed as “boosts HA yield”. Further, the “HA yield enhancement, high-expressing A strain” value in data set [5] is “much greater enhancement in HA yield; also recorded: Only AFZ077 enhanced yield”. Also, the “HA yield over original yields, high ICD format with AFZ treatment” value in the data set on A and B strains is given as approximately 4 fold. Moreover, the “increase in HA yield over the controls” value in the data set on B/Massachusetts/02/2012 is recorded as “no significant increase in HA yield”. Besides, the “HA enhancing effect in presence of serotonin (5HT)” value on 5HT7 receptor was “can be abrogated by adding serotonin (5HT)”. Besides, the “loss of compound in media or media+MDCK cells” value in [6] is recorded as “No loss of compounds was observed”.

Consider `CC(C)n1c(/C=C/[C@@H](O)C[C@@H](O)CC(=O)O)c(-c2ccc(F)cc2)c2ccccc21` [fluvastatin, (3R, 5S, 6E)-7-[3-(4-fluorophenyl)-1-(propan-2-yl)-1H-indol-2-yl]-3,4-dihydroxyhept-6-enoic acid], for which the “HA yield compared with pitavastatin” value in the data set with Subtype AH3N2 is recorded as “performed even better than pitavastatin”.

As for `CC(C)c1nc(N(C)S(C)(=O)=O)nc(-c2ccc(F)cc2)c1/C=C/[C@@H](O)C[C@@H](O)CC(=O)O` [Rosuvastatin, bis[(E)-7-[4-(4-fluorophenyl)-6-isopropyl-2-[methyl(methylsulfonyl)amino]pyrimidin-5-yl](3R,5S)-3,5-dihydroxyhept-6-enoic acid]], the “HA yield compared with other commercially available statins” value in the data set on Subtype A/Texas X223A is reported as “did not produce the yield potential of comparative statins”.

For the molecule `COc1ccc(C2=N[C@@H](c3ccc(Cl)cc3)[C@@H](c3ccc(Cl)cc3)N2C(=O)N2CCNC(=O)C2)c(OC(C)C)c1` [Nutlin-3], the “copies of viral genome in the supernatant compared with control” value in the data set with influenza H3N2 virus is “up to nineteen times more copies of viral genome”.
